Our source for the IC50 values is patent US7160905B2, “Hydroxyethylene compounds with Asp2 inhibitory activity” (SmithKline Beecham p.l.c., priority 2001, dated 2007).

Common to all, as to format: biochemical
The target in one experiment is Asp-2 (Homo sapiens, UniProt P56817). The experiment in a line: Asp-2 inhibitory assay (FAM-[SEVNLDAEFK]-TAMRA fluorescence). The settings on record: Assay (I), 1 h at room temperature, pH 4.5. Here is the method: (I) Asp-2 Inhibitory Assay
For each compound being assayed, in a 384 well plate, is added:— • a) 1 μl of a DMSO solution of the test compound (IC50 curve uses ten 1 in 2 serial dilutions from 500 μM) • b) 10 μl of substrate (FAM-[SEVNLDAEFK]-TAMRA) solution in buffer. This is prepared by diluting 2 ml of a 2 mM DMSO solution of the substrate into 400 ml of buffer (100 mM Sodium acetate pH=4.5, 1 l Milli-Q water, 0.06% Triton X-100 (0.5 ml/l), pH adjusted to 4.5 using glacial acetic acid). Aminomethyl fluorescein (FAM) and tetramethyl rhodamine (TAMRA) are fluorescent molecules which co-operate to emit fluorescence at 535 nm upon cleavage of the SEVNLDAEFK peptide. • c) 10 μl enzyme solution. This is prepared by diluting 16 ml of a 500 nM enzyme solution into 384 ml of buffer (prepared as above).
(§1) Blank wells (enzyme solution replaced by buffer) are included as controls on each plate. Wells are incubated for 1 h at room temperature and fluorescence read using a Tecan Ultra Fluorimeter/Spectrophotometer (485 nm excitation, 535 nm emission).

In another experiment the target is T1, Asp-1 (Homo sapiens, UniProt Q9Y5Z0).
T1 sequence (Q9Y5Z0 63-518): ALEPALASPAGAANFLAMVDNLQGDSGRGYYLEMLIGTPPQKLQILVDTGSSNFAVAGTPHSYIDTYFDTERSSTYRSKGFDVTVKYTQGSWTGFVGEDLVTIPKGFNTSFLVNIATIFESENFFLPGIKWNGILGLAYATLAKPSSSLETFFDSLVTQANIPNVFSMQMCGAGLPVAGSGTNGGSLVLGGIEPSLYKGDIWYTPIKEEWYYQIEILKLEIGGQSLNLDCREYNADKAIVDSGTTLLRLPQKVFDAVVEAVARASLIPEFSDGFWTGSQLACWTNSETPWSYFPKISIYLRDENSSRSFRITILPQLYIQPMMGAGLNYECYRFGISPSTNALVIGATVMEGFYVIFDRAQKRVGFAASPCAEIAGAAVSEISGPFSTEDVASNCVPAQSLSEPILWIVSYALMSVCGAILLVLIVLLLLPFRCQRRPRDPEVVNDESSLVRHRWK
The experiment in a line: Asp-1 inhibitory assay (FAM-[SEVNLDAEFK]-TAMRA fluorescence). The conditions noted are these: Assay (II), 2 h at room temperature, pH 4.5. On the procedure: (II) Asps-1 Inhibitory Assay
(§2) For each compound being assayed, in a 384 well plate, is added:— • a) 1 μl of a DMSO solution of the test compound (IC50 curve uses ten 1 in 2 serial dilutions from 500 μM). • b) 10 μl of substrate (FAM-[SEVNLDAEFK]-TAMRA) solution in buffer. This is prepared by diluting 2 ml of a 2 mM DMSO solution of the substrate into 400 ml of buffer (100 mM Sodium acetate pH=4.5, 1 l Milli-Q water, 0.06% Triton X-100 (0.5 ml/l), pH adjusted to 4.5 using glacial acetic acid). • c) 10 μl enzyme solution. This is prepared by diluting 4 ml of a 6.3 μM enzyme solution into 496 ml of buffer (100 mM Sodium acetate pH=4.5, 40 mM sodium chloride, 900 ml Milli-Q water, 100 ml glycerol, 0.2% CHAPS (2 g/l), pH adjusted to 4.5 using glacial acetic acid).
Blank wells (enzyme solution replaced by buffer) are included as controls on each plate. Wells are incubated for 2 h at room temperature and fluorescence read using a Tecan Ultra Fluorimeter/Spectrophotometer (485 nm excitation, 535 nm emission).

In the next experiment the target is Cathepsin D (Homo sapiens, UniProt P07339). Description: Cathepsin D inhibitory assay (FAM-[SEVNLDAEFK]-TAMRA fluorescence). The conditions noted are these: Assay (III), 1 h at room temperature, pH 4.5; read-out: inhibition (CatD). Here is the method: (III) Cathepsin D Inhibitory Assay
as §2, with “diluting 1.6” for “diluting 4”, “a 200 unit/ml (in 10 mM HCl)” for “a 6.3 μM”, “into 398.4” for “into 496”, “buffer (prepared as above).” for “buffer (100 mM Sodium acetate pH=4.5, 40 mM sodium chloride, 900 ml Milli-Q water, 100 ml glycerol, 0.2% CHAPS (2 g/l), pH adjusted to 4.5 using glacial acetic acid).”
as §1

Read-outs that look alike come from different tables or passages of the source.

Asp-2, sequence (P56817 46-501): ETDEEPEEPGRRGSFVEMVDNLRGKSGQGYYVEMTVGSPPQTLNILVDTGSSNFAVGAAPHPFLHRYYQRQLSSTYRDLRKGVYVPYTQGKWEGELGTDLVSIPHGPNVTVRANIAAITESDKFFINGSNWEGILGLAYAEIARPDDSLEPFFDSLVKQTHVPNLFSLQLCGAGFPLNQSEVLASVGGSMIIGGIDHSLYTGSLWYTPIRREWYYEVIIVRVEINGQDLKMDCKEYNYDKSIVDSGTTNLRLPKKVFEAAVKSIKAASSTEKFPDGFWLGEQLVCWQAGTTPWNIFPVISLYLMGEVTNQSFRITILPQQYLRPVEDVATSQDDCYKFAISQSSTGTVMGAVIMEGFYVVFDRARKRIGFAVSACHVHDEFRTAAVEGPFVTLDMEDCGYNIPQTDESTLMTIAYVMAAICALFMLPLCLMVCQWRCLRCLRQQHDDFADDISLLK
Cathepsin D, sequence (P07339 65-412, species assumed): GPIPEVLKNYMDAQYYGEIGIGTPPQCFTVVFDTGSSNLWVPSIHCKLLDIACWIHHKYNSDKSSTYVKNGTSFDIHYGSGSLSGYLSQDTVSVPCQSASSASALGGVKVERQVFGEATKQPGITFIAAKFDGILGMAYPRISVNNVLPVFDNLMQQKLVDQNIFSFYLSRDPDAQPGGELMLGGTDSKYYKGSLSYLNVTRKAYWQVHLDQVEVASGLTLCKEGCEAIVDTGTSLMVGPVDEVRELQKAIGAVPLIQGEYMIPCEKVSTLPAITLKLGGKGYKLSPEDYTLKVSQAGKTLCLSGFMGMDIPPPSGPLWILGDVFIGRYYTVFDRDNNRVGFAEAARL

As to `C[C@H](C[C@H](O)[C@H](Cc1ccccc1)NC(=O)c1cccc(S(C)(=O)=O)c1)C(=O)NCCC(C)(C)C` [Example E1, N-[(1S,2S,4R)-1-Benzyl-4-(3,3-dimethylbutylcarbamoyl)-2-hydroxypentyl]-3-methanesulfonyl-benzamide], the figures for the IC50 at Asp-2 (read-out: Asp-2 IC50) and at Asp-1 (read-out: Asp-1 IC50) were 0.4 µM and 7.7 µM, respectively.

For `C#CC[C@H](C[C@H](O)[C@H](Cc1ccccc1)NC(=O)c1cccc(S(C)(=O)=O)c1)C(=O)NC1CC2CCC1C2` (stereo partly shown) [Example E2], the IC50 on Asp-2 (read-out: Asp-2 IC50) is 0.33 µM; on Asp-1 (read-out: Asp-1 IC50) it was 5.57 µM.

As for `C[C@H](C[C@H](O)[C@H](Cc1ccccc1)NC(=O)c1ccc(S(C)(=O)=O)s1)C(=O)NCCC(C)(C)C` [Example E9, 5-Methanesulfonyl-thiophene-2-carboxylic acid [(1S,2S,4R)-1-benzyl-4-(3,3-dimethyl-butylcarbamoyl)-2-hydroxypentyl]-amide], the IC50 on Asp-2 (read-out: inhibition (Asp-2)) was 0.18 µM; on Asp-1 (read-out: inhibition (Asp-1)), 3.3 µM; at Cathepsin D, 9.6 µM.
